Test results published in patent publication US20120225909A1, “INDAZOLE ANALOG” (priority 2009, published 2012).

Columns and labels:
[1] = biological target: T1, human α1A-adrenergic receptor (Homo sapiens, UniProt P35348); test: Test Case 4-A: human α1A-adrenergic receptor agonist activity (HEK293, Ca flux, Fura-2); format: cell-based; parameters: expressed in transfected cells; host or cells: HEK293 cells, pcDNA3.1; settings: for Emax: HEK293, read-out: α1A receptor I.A.; for EC50 / α1A receptor I.A.: Test Case 4-A, Table 4; for EC50: HEK293 cells, Ca flux; for α1A receptor I.A.: maximum response of norepinephrine = 100%
T1 sequence (P35348 1-466): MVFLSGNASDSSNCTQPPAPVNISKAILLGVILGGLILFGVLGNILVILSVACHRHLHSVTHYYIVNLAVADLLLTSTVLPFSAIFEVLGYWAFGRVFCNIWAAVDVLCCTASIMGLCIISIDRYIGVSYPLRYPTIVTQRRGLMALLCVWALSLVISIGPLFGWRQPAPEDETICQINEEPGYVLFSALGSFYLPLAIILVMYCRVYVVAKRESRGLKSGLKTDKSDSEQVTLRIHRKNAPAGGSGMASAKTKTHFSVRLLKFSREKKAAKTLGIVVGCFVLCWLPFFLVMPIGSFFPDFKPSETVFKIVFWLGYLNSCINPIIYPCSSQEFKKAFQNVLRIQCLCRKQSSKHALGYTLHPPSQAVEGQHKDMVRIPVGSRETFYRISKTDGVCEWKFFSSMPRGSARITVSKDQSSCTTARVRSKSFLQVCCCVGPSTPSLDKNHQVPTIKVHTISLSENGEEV
Description: Measurement of Human α1A-Adrenergic Receptor Agonist Activity
The human α1A-adrenergic receptor agonist activity is measured using HEK293 cells transfected by a human α1A gene inserted in pcDNA3.1 (Invitrogen). […] After loading for 30 minutes in a CO2 incubator, the excess Fura-2AM is removed by washing twice with assay buffer. After preparing the centrifuged cells to make 5×10^6 cells/mL by assay buffer, 80 μL/well is dispensed into 96-well UV plates (made by Corning) to make cell plates. Sample plates with the test compound diluted 10-fold by assay buffer from 10^−5 to 10^−12 M and cell plates are set in an FDSS4000 (made by Hamamatsu Photonics). After preincubating for 180 seconds, measurement of fluorescence intensity (excitation wavelength 340 nm, 380 nm, measurement wavelength 500 nm) is begun at 2-second intervals. After approximately 30 seconds of measurement, 20 μL of test sample from a sample plate is added to the cell plate, and measurement is continued for another 270 seconds. The Ca flux caused by the test compound is calculated taking the difference in the maximum value of the fluorescence intensity ratio at 340 nm and 380 nm after adding the test compound and the fluorescence intensity ratio before adding the test compound as the peak height.

[2] = biological target: T2, human β3-adrenergic receptor (Homo sapiens, UniProt P13945); test: Test Case 1-B: human β3-adrenergic receptor agonist activity (cAMP-Screen, 96-well); format: cell-based; settings: for Emax: 0.5 h, read-out: β3 receptor I.A.; for EC50 / β3 receptor I.A.: Test Case 1-B; for EC50: CHO cells, cAMP; for β3 receptor I.A.: maximum response of isoproterenol = 100%
T2 construct: A full-length human β3 gene is obtained from a human genomic library (made by Clontech) using this as the probe; expressed in transfected cells; host or cells: CHO (Chinese hamster ovary) cells, pcDNA3
Description: Measurement of Human β3-Adrenergic Receptor Agonist Activity
The human β3-adrenergic receptor agonist activity is measured using CHO (Chinese hamster ovary) cells transfected by a human β3 gene inserted in pcDNA3 (Invitrogen). […] A full-length human β3 gene is obtained from a human genomic library (made by Clontech) using this as the probe. These cells are cultured in Ham's F-12 medium containing 10% fetal calf serum and 400 μg/mL genectin (Invitrogen). These cells are sown in 96-well plates to make 2×10^4 cells/well. After culturing for approximately 20 hours, they are allowed to stand for 15 minutes in 80 μL of serum-free Ham's F-12 medium. After first dissolving the test compound by DMSO, it is serially diluted by Ham's F-12 containing 100 mmol/L HEPES and 1 mmol/L isobutylmethylxanthine, and 20 μL is added to the cells. After culturing for 30 minutes, the medium is removed, and 0.1 mL of the assay/lysis buffer contained in the cAMP-Screen kit (made by Applied Bioscience) is added and incubated for 30 minutes at 37° C. The cAMP in this cell lysate is assayed by the above cAMP-Screen kit.

T2 sequence (P13945 whole entry): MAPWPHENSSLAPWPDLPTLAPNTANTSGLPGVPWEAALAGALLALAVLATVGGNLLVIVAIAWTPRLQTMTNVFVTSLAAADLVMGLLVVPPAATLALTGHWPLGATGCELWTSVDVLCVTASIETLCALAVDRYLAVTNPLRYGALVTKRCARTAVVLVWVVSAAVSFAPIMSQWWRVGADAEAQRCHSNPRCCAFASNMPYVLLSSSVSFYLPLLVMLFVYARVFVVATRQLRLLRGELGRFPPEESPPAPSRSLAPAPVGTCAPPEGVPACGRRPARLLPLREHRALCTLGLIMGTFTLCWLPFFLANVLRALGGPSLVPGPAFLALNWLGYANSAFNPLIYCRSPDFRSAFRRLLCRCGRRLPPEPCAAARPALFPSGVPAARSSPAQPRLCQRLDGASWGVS

| Molecule | Emax [1] [%] | Emax [2] [%] | EC50 [2] [nM] | EC50 [1] [nM] | α1A receptor I.A. [1] [%] | β3 receptor I.A. [2] [%] |
| --- | --- | --- | --- | --- | --- | --- |
| COc1cccc(S(=O)(=O)Nc2cccc([C@@H](O)CNCCOc3ccc4c(OC)n[nH]c4c3)c2)c1 [ex14, (R)-N-(3-(1-hydroxy-2-(2-(3-methoxyindazol-6-yloxy)ethylamino)ethyl)phenyl)-3-methoxy-b ? sulfonamide] | 0 |  |  |  |  |  |
| Cc1n[nH]c2cc(OCCNC[C@H](O)c3cccc(NS(=O)(=O)c4cccc(OC(F)F)c4)c3)ccc12 [ex66, (R)-3-(difluoro-methoxy)-N-(3-(1-hydroxy-2-(2-(3-methylindazol-6-yloxy)ethylamino)ethyl)phenyl) benzenesulfonamide] |  | 88 | 291 |  |  |  |
| CCc1n[nH]c2cc(OCCNC[C@H](O)c3cccc(NS(=O)(=O)c4cccc(OC)c4)c3)ccc12 [ex120, (R)-N-(3-(2-(2-(3-ethylindazol-6-yloxy)ethylamino)-1-hydroxyethyl)phenyl)-3-methoxybenzene-sulfonamide] | 0 | 32 | 131 |  |  |  |
| COc1n[nH]c2cc(OCCNC[C@H](O)c3cccc(NS(=O)(=O)C4CCC4)c3)ccc12 [ex38, (R)-N-(3-(1-hydroxy-2-(2-(3-methoxyindazol-6-yloxy)-ethylamino)ethyl)phenyl)cyclo-butanesulfonamide] | 75 | 89 | 31 | 378 |  |  |
| O=S(=O)(Nc1cccc([C@@H](O)CNCCOc2ccc3c(OC(F)F)n[nH]c3c2)c1)C1CCC1 [ex115, (R)-N-(3-(2-(2-(3-(difluoromethoxy)-indazol-6-yloxy)ethylamino)-1-hydroxyethyl)phenyl)-cyclobutanesul-fonamide] | 35 | 86 | 15 | 1100 |  |  |
| O=S(=O)(Nc1cccc([C@@H](O)CNCCOc2ccc3c(C4CC4)n[nH]c3c2)c1)C1CC1 [ex227, (R)-N-(3-(2-(2-(3-cyclopropylindazol-6-yloxy)ethylamino)-1-hydroxyethyl)phenyl)-cyclopropane-sulfonamide] |  |  | 31 |  | 1 | 65 |
| Cc1n[nH]c2cc(OCCNC[C@H](O)c3cccc(NS(=O)(=O)c4ccccc4Cl)c3)ccc12 [ex51, (R)-2-chloro-N-(3-(1-hydroxy-2-(2-(3-methylindazol-6-yloxy)ethylamino)ethyl)phenyl)ben-zenesulfonamide] | 0 | 64 | 146 |  |  |  |
| (R)-N-(3-(1-hydroxy-2- (2-(3-methoxyindazol- 6-yloxy)-ethylamino) ethyl)phenyl)- ? benzenesulfonamide [ex40] |  |  |  |  |  | 50 |
| Nc1cccc(S(=O)(=O)Nc2cc([C@@H](O)CNCCOc3ccc4c(C(F)(F)F)n[nH]c4c3)ccc2Cl)c1 [ex183, (R)-3-amino-N-(2-chloro-5-(1-hydroxy-2-(2-(3-(trifluoro-methyl)-indazol-6-yloxy)ethylamino)ethyl)phenyl)ben-zenesulfonamide] |  |  |  |  |  | 72 |
| Cc1n[nH]c2cc(OCCNC[C@H](O)c3cccc(NS(=O)(=O)c4cccc(C(F)(F)F)c4)c3)ccc12 [ex65, (R)-N-(3-(1-hydroxy-2-(2-(3-methylindazol-6-yloxy)ethylamino)ethyl)phenyl)-3-(trifluoromethyl)-benzenesulfonamide] |  | 65 | 579 |  |  |  |
| Cc1n[nH]c2cc(OCCNC[C@H](O)c3cccc(NS(=O)(=O)c4cc(F)c(F)c(F)c4)c3)ccc12 [ex77, (R)-3,4,5-trifluoro-N-(3-(1-hydroxy-2-(2-(3-methylindazol-6-yloxy)ethylamino)ethyl)phenyl) benzenesulfonamide] |  |  |  |  |  | 59 |
| Cc1n[nH]c2cc(OCCNC[C@H](O)c3cccc(NS(=O)(=O)c4ccccn4)c3)ccc12 [ex64, (R)-N-(3-(1-hydroxy-2-(2-(3-methylindazol-6-yloxy)ethylamino)ethyl)phenyl)pyridine-2-sulfonamide] |  | 65 | 208 |  |  |  |
| Cc1n[nH]c2cc(OCCNC[C@H](O)c3cccc(NS(=O)(=O)c4c(F)cccc4F)c3)ccc12 [ex69, (R)-2,6-difluoro-N-(3-(1-hydroxy-2-(2-(3-methylindazol-6-yloxy)ethylamino)ethyl)phenyl) benzenesulfonamide] |  | 72 | 594 |  |  |  |
| COc1cccc(S(=O)(=O)Nc2cccc([C@@H](O)CNCCOc3ccc4c(OC)n[nH]c4c3)c2)c1 [ex15, (R)-N-(3-(1-hydroxy-2-(2-(3-methoxyindazol-6-yloxy)ethylamino)ethyl)phenyl)-3-methoxy-b ? sulfonamide] |  |  |  |  | 0 |  |

Now from value to molecule, other results behind:

| Emax [1] [%] | Emax [2] [%] | EC50 [2] [nM] | EC50 [1] [nM] | Molecule | α1A receptor I.A. [1] [%] | β3 receptor I.A. [2] [%] |
| --- | --- | --- | --- | --- | --- | --- |
| 0 | 50 | 0.67 |  | CCc1n[nH]c2cc(OCCNC[C@H](O)c3cccc(NS(=O)(=O)c4ccsc4)c3)ccc12 [ex123, (R)-N-(3-(2-(2-(3-ethylindazol-6-yloxy)ethylamino)-1-hydroxyethyl)phenyl) thiophene-3-sulfonamide] |  |  |
|  |  | 14 |  | (R)-N-(3-(1-hydroxy- 2-(2-(3-iso- propylindazol-6-yloxy) ethylamino)ethyl) phenyl)cyclopro- panesulfonamide [ex228] | 0 | 47 |
| 89 | 72 | 72 | 44 | O=S(=O)(Nc1cccc([C@@H](O)CNCCOc2ccc3c(CO)n[nH]c3c2)c1)C1CCC1 [ex243, (R)—N-(3-(1-hydroxy-2-(2-(3-(hydroxymethyl)indazole-6-yloxy)ethylamino)ethyl)phenyl)cyclobutanesulfonamide] |  |  |
| 41 | 91 | 5.7 | 981 | Cn1cc(S(=O)(=O)Nc2cccc([C@@H](O)CNCCOc3ccc4c(C5CC5)n[nH]c4c3)c2)cn1 [ex225, (R)-N-(3-(2-(2-(3-cyclopropylindazol-6-yloxy)ethylamino)-1-hydroxyethyl)phenyl)-1-methyl-pyrazole-4-sul-fonamide] |  |  |
| 61 | 85 | 5.4 | 1280 | CCc1n[nH]c2cc(OCCNC[C@H](O)c3cccc(NS(=O)(=O)C4CCC4)c3)ccc12 [ex150] |  |  |
| 54 | 86 | 17 | 1700 | O=S(=O)(Nc1cccc([C@@H](O)CNCCOc2ccc3c(C(F)(F)F)n[nH]c3c2)c1)C1CCC1 [ex210, (R)-N-(3-(1-hydroxy-2-(2-(3-(trifluoro-methyl)-indazol-6-yloxy)ethylamino)ethyl)phenyl)cyclo-clobutanesulfonamide] |  |  |
| 0 | 53 | 2.8 |  | CCc1n[nH]c2cc(OCCNC[C@H](O)c3cccc(NS(=O)(=O)c4cccnc4)c3)ccc12 [ex121, (R)-N-(3-(2-(2-(3-ethylindazol-6-yloxy)ethylamino)-1-hydroxyethyl)phenyl) pyridine-3-sulfonamide] |  |  |
| 15 | 34 | 14 |  | CCc1n[nH]c2cc(OCCNC[C@H](O)c3cccc(NS(=O)(=O)CC(F)(F)F)c3)ccc12 [ex125, (R)-N-(3-(2-(2-(3-ethylindazol-6-yloxy)ethylamino)-1-hydroxyethyl)phenyl)-2,2,2-trifluoro ? sulfonamide] |  |  |
| 26 | 93 | 17 | 436 | O=S(=O)(Nc1cccc([C@@H](O)CNCCOc2ccc3c(Cl)n[nH]c3c2)c1)C1CCC1 [ex179, (R)-N-(3-(2-(2-(3-chloroindazol-6-yloxy)ethylamino)-1-hydroxyethyl)phenyl)-cyclobutanesul-fonamide] |  |  |
